The record followed here is publication PMC10332459, “N-terminal lid swapping contributes to the substrate specificity and activity of thermophilic lipase TrLipE” (Frontiers in Microbiology, 2023).

The structures appear in SMILES notation.

What all share (experiment): p-nitrophenol release at […] nm, non-linear fit
Type in all cases: biochemical, Thermomicrobium roseum

Assay [1] has as its system T1, TrL7.
T1 construct: gene SshEstI; N-terminal lid Pro2-Lys45 of 4P9N fused to TrLipE Val54-Ala323; His-tagged, E. coli BL21, 35-37 kDa
Particulars: 60 °C; Tris-HCl 50 mM pH 8.0; gum arabic and sodium deoxycholate emulsion; read-out: 4-Nitrophenyl laurate.

In assay [2] the test system is T2, TrL5.
T2 construct: N-terminal lid Asn23-Pro66 of 4C89 fused to TrLipE Val54-Ala323; His-tagged, E. coli BL21, 35-37 kDa
Particulars: 60 °C; Tris-HCl 50 mM pH 8.0; gum arabic and sodium deoxycholate emulsion; read-out: 4-Nitrophenyl laurate.

In assay [3] the test system is T3, TrL8.
T3 construct: gene ThaEst2349; N-terminal lid Pro2-Asp49 of 4V2I fused to TrLipE Val54-Ala323; His-tagged, E. coli BL21, 35-37 kDa
Particulars: 60 °C; Tris-HCl 50 mM pH 8.0; gum arabic and sodium deoxycholate emulsion; read-out: 4-Nitrophenyl decanoate.

Assay [4] deals with T4, TrL16.
T4 construct: gene PMGL3; N-terminal lid Asn2-Cys49 of 7B1X fused to TrLipE Val54-Ala323; His-tagged, E. coli BL21, 35-37 kDa
Particulars: 60 °C; Tris-HCl 50 mM pH 8.0; gum arabic and sodium deoxycholate emulsion; read-out: 4-Nitrophenyl decanoate.

Assay [5] deals with T5, TrL1.
T5 construct: gene EST2; N-terminal lid Leu3-Pro44 of 1EVQ fused to TrLipE Val54-Ala323; His-tagged, E. coli BL21, 35-37 kDa
Particulars: 60 °C; Tris-HCl 50 mM pH 8.0; gum arabic and sodium deoxycholate emulsion; read-out: 4-Nitrophenyl palmitate.

Assay [6] has as its system T6, TrL12.
T6 construct: gene TmelEST2; N-terminal lid Gln34-Glu74 of 5MIF fused to TrLipE Val54-Ala323; His-tagged, E. coli BL21, 35-37 kDa
Particulars: 60 °C; Tris-HCl 50 mM pH 8.0; gum arabic and sodium deoxycholate emulsion; read-out: 4-Nitrophenyl palmitate.

Assay [7] concerns T7, TrL4.
T7 construct: gene LipW; N-terminal lid Val2-Gly53 of 3QH4 fused to TrLipE Val54-Ala323; His-tagged, E. coli BL21, 35-37 kDa
Particulars: 60 °C; Tris-HCl 50 mM pH 8.0; gum arabic and sodium deoxycholate emulsion; read-out: 4-Nitrophenyl palmitate.

The test system of assay [8] is T8, TrL11.
T8 construct: gene E53; N-terminal lid Lys4-Gly69 of 5HC0 fused to TrLipE Val54-Ala323; His-tagged, E. coli BL21, 35-37 kDa
Particulars: 60 °C; Tris-HCl 50 mM pH 8.0; gum arabic and sodium deoxycholate emulsion; read-out: 4-Nitrophenyl palmitate.

For assay [9], the system named is T9, TrL9.
T9 construct: gene Est8; N-terminal lid Ala2-Gly49 of 4YPV fused to TrLipE Val54-Ala323; His-tagged, E. coli BL21, 35-37 kDa
Particulars: 60 °C; Tris-HCl 50 mM pH 8.0; gum arabic and sodium deoxycholate emulsion; read-out: 4-Nitrophenyl palmitate.

The test system of assay [10] is T10, TrL17.
T10 construct: gene EstN7; N-terminal lid Lys2-Glu45 of 7B4Q fused to TrLipE Val54-Ala323; His-tagged, E. coli BL21, 35-37 kDa
Particulars: 60 °C; Tris-HCl 50 mM pH 8.0; gum arabic and sodium deoxycholate emulsion; read-out: 4-Nitrophenyl benzoate.

Assay [11] relates to T11, TrL3.
T11 construct: gene EstE7; N-terminal lid Asp13-Gly57 of 3K6K fused to TrLipE Val54-Ala323; His-tagged, E. coli BL21, 35-37 kDa
Particulars: 60 °C; Tris-HCl 50 mM pH 8.0; gum arabic and sodium deoxycholate emulsion; read-out: 4-Nitrophenyl benzoate.

The test system of assay [12] is T12, TrL2.
T12 construct: gene EstE5; N-terminal lid Ala2-Asp42 of 3H18 fused to TrLipE Val54-Ala323; His-tagged, E. coli BL21, 35-37 kDa
Particulars: 60 °C; Tris-HCl 50 mM pH 8.0; gum arabic and sodium deoxycholate emulsion; read-out: 4-Nitrophenyl benzoate.

Assay [13] concerns T13, TrL18.
T13 construct: N-terminal lid Ala2-Glu45 of 7UAY fused to TrLipE Val54-Ala323; His-tagged, E. coli BL21, 35-37 kDa
Particulars: 60 °C; Tris-HCl 50 mM pH 8.0; gum arabic and sodium deoxycholate emulsion; read-out: 4-Nitrophenyl benzoate.

With `CCCCCCCCCCCC(=O)Oc1ccc([N+](=O)[O-])cc1` [4-Nitrophenyl laurate], the Km worked out at 12.8 µM in [1] and 21.1 µM in assay [2].
Turning to `CCCCCCCCCC(=O)Oc1ccc([N+](=O)[O-])cc1` [4-Nitrophenyl decanoate], the Km in assay [3] came out at 21.8 µM; in assay [4] it was 44.7 µM.
For `CCCCCCCCCCCCCCCC(=O)Oc1ccc([N+](=O)[O-])cc1` [4-Nitrophenyl palmitate], the Km in [5] came out at 55.3 µM; in assay [6] it was 13.7 µM; in assay [7] it was 7.46 µM; in [8], 77.4 µM; in assay [9], 23.2 µM.
For the compound `O=C(Oc1ccc([N+](=O)[O-])cc1)c1ccccc1` [4-Nitrophenyl benzoate], the Km in assay [10] is 60.2 µM; in [11], 37 µM; in [12], 50 µM; in assay [13], 44.9 µM.
